In patent US7223888B2, “Mu opioid receptor ligands: methods of use and synthesis” (President and Fellows of Harvard College, priority 2002, dated 2007):
Where two headings read alike, the source gives them in different places.

Tests used:
[1] = target: T1, hMOR-1 (Homo sapiens, UniProt P35372); assay: Opioid receptor competitive binding assay, MOR (3H-DAMGO); conditions: Ki MOR, Table 3; 3H-DAMGO, hMOR-1 stably transfected into CHO cells; errors 95% confidence interval
T1 construct: purchased Amersham Biosciences; host or cells: stably transfected CHO cells (membrane preparation)
Experimental: (§1) For selected compounds, Ki for MOR, DOR, and KOR were determined according to the following procedure: Recombinant hMOR-1 membrane preps from stably transfected CHO cells and recombinant hDOR-1 membrane preps from stably transfected HEK-293 cells were purchased from Amersham Biosciences. Guinea pig cerebellum preparations were used for KOR assays.
(§2) Each microassay from an assay plate was filtered through an individual well of a Packard GF/B 96-well filter plate (glass fiber filter) to collect the membranes. Each well was washed twice with 200 μL of ice cold wash buffer (50 mM Tris, pH 7.4). The filter plate was allowed to dry overnight, the back was sealed, and Packard Bioscience Microscint PS scintillation fluid (75 μL) was added to each well, which was then counted for ^3H for 2 minutes using a Packard Bioscience TopCount scintillation counter plate reader.
(§3) Each compound was assayed at 8 concentrations, using half-log serial dilutions. Each concentration was tested in triplicate, and the ^3H cpm were averaged.
(§4) This concentration was determined experimentally by scintillation counting an aliquot of the radioligand stock solution used in the assay.
(§5) Kd=the binding constant for the radioligand.
(§6) This triplicate experiment was repeated three times for the MOR and twice for the DOR and the KOR.

[2] = target: T2, hDOR-1 (Homo sapiens, UniProt P41143); assay: Opioid receptor competitive binding assay, DOR; conditions: for Ki DOR/Ki MOR: Table 12, selectivity for MOR versus DOR (3H-DPDPE, hDOR-1)
T2 construct: purchased Amersham Biosciences; host or cells: stably transfected HEK-293 cells (membrane preparation)
Experimental: as §1, §2, §3, §4, §5, §6

[3] = target: T3, KOR (Cavia porcellus, UniProt P41144); assay: Opioid receptor competitive binding assay, KOR (3H-U-69,593); design: species or system guinea pig; conditions: for Ki KOR/Ki MOR: Table 12, selectivity for MOR versus KOR
T3 construct: from tissue; host or cells: guinea pig cerebellum preparation
Experimental: as §1, §2, §3, §6

[4] = Ki DOR, Table 6, footnote:, hDOR-1 stably transfected into HEK-293 cells, errors two standard deviations
[5] = Ki KOR, Table 9, 3H-U-69,593, guinea pig cerebellum preps, errors two standard deviations

## NC(=O)C(Cc1ccccc1)NC(=O)C(Cc1ccccc1)C(O)/C=C\CC(O)C(N)Cc1ccc(O)cc1 (single isomer, unassigned) [(S,R,S,R)-9, (Z)-8-Amino-2-benzyl-3,7-dihydroxy-9-(4-hydroxy-phenyl)-non-4-enoic acid (1-carbamoyl-2-phenyl-ethyl)-amide]
[1]
  Ki: 260 ± 70 nM
[2]; [4]
  Ki: 10000 ± 2000 nM
[2]
  Ki DOR/Ki MOR: 39
[3]; [5]
  Ki: 1700 ± 400 nM
[3]
  Ki KOR/Ki MOR: 7

## NC(=O)C(Cc1ccccc1)NC(=O)C(Cc1ccccc1)C(O)/C=C/CC(O)C(N)Cc1ccc(O)cc1 (single isomer, unassigned) [(S,S,R,R)-2, (E)-8-Amino-2-benzyl-3,7-dihydroxy-9-(4-hydroxy-phenyl)-non-4-enoic acid (1-carbamoyl-2-phenyl-ethyl)-amide]
[1]
  Ki: 25 ± 5 nM
[2]; [4]
  Ki: 1200 ± 100 nM
[2]
  Ki DOR/Ki MOR: 45
[3]; [5]
  Ki: 1200 ± 700 nM
[3]
  Ki KOR/Ki MOR: 48

## NC(=O)C(Cc1ccccc1)NC(=O)C(Cc1ccccc1)C(O)CCCC(O)C(N)Cc1ccc(O)cc1 (single isomer, unassigned) [(S,S,R,R)-6, 8-Amino-2-benzyl-3,7-dihydroxy-9-(4-hydroxy-phenyl)-nonanoic acid (1-carbamoyl-2-phenyl-ethyl)-amide]
[1]
  Ki: 95 ± 61 nM
[2]; read-out: Ki DOR
  Ki: 3000 ± 100 nM
[3]; read-out: Ki KOR
  Ki: 730 ± 270 nM

## NC(=O)C(Cc1ccccc1)NC(=O)C(Cc1ccccc1)C(O)/C=C\CC(O)C(N)Cc1ccc(O)cc1 (single isomer, unassigned) [(S,S,R,R)-9, (Z)-8-Amino-2-benzyl-3,7-dihydroxy-9-(4-hydroxy-phenyl)-non-4-enoic acid (1-carbamoyl-2-phenyl-ethyl)-amide]
[1]
  Ki: 74 ± 12 nM
[2]; [4]
  Ki: 4300 ± 1400 nM
[2]
  Ki DOR/Ki MOR: 58
[3]; [5]
  Ki: 1600 ± 100 nM
[3]
  Ki KOR/Ki MOR: 22

## NC(Cc1ccc(O)cc1)C(O)C/C=C/C(O)C(Cc1ccccc1)C(=O)NCCc1ccccc1 (single isomer, unassigned) [(S,S,R,R)-10, (E)-8-Amino-2-benzyl-3,7-dihydroxy-9-(4-hydroxy-phenyl)-non-4-enoic acid phenethyl-amide]
[1]
  Ki: 29 ± 8 nM
[2]; [4]
  Ki: 1200 ± 300 nM
[2]
  Ki DOR/Ki MOR: 42
[3]; [5]
  Ki: 3400 ± 300 nM
[3]
  Ki KOR/Ki MOR: 120

## NC(Cc1ccc(O)cc1)C(O)C/C=C/C(O)C(Cc1ccccc1)C(=O)NC(CO)Cc1ccccc1 (single isomer, unassigned) [(S,S,R,R)-11, (E)-8-Amino-2-benzyl-3,7-dihydroxy-9-(4-hydroxy-phenyl)-non-4-enoic acid (1-hydroxymethyl-2-phenyl-ethyl)-amide]
[1]
  Ki: 16 ± 1 nM
[2]; [4]
  Ki: 620 ± 80 nM
[2]
  Ki DOR/Ki MOR: 39
[3]; [5]
  Ki: 2900 ± 400 nM
[3]
  Ki KOR/Ki MOR: 180

## C=CC(O)C(Cc1ccccc1)NC(=O)C(Cc1ccccc1)C(O)/C=C/CC(O)C(N)Cc1ccc(O)cc1 (single isomer, unassigned) [(S,S,R,R)-12, (E)-8-Amino-2-benzyl-3,7-dihydroxy-9-(4-hydroxy-phenyl)-non-4-enoic acid (1-benzyl-2-hydroxy-but-3-enyl)-amide]
[1]
  Ki: 22 ± 4 nM
[2]; [4]
  Ki: 620 ± 70 nM
[2]
  Ki DOR/Ki MOR: 28
[3]; [5]
  Ki: 770 ± 130 nM
[3]
  Ki KOR/Ki MOR: 35

## NC(=O)C(Cc1ccccc1)NC(=O)C(Cc1ccccc1)C(O)/C=C/CC(O)C(N)Cc1ccc(O)cc1 (single isomer, unassigned) [(S,S,R,S)-2, (E)-8-Amino-2-benzyl-3,7-dihydroxy-9-(4-hydroxy-phenyl)-non-4-enoic acid (1-carbamoyl-2-phenyl-ethyl)-amide]
[1]
  Ki: 79 ± 23 nM
[2]; [4]
  Ki: 6900 ± 1300 nM
[2]
  Ki DOR/Ki MOR: 86
[3]; [5]
  Ki: 1300 ± 100 nM
[3]
  Ki KOR/Ki MOR: 16

## NC(=O)C(Cc1ccccc1)NC(=O)C(Cc1ccccc1)C(O)/C=C/CC(O)C(N)Cc1ccc(O)cc1 (single isomer, unassigned) [(S,S,S,R)-2, (E)-8-Amino-2-benzyl-3,7-dihydroxy-9-(4-hydroxy-phenyl)-non-4-enoic acid (1-carbamoyl-2-phenyl-ethyl)-amide]
[1]
  Ki: 8.8 ± 0.7 nM
[2]; [4]
  Ki: 510 ± 10 nM
[2]
  Ki DOR/Ki MOR: 57
[3]; [5]
  Ki: 1300 ± 500 nM
[3]
  Ki KOR/Ki MOR: 150

## NC(=O)C(Cc1ccccc1)NC(=O)C(Cc1ccccc1)C(O)/C=C\CC(O)C(N)Cc1ccc(O)cc1 (single isomer, unassigned) [(S,S,S,R)-9, (Z)-8-Amino-2-benzyl-3,7-dihydroxy-9-(4-hydroxy-phenyl)-non-4-enoic acid (1-carbamoyl-2-phenyl-ethyl)-amide]
[1]
  Ki: 370 ± 150 nM
[2]; [4]
  Ki: 2200 ± 100 nM
[2]
  Ki DOR/Ki MOR: 6
[3]; [5]
  Ki: 6100 ± 3000 nM
[3]
  Ki KOR/Ki MOR: 16

## NC(Cc1ccc(O)cc1)C(O)C/C=C/C(O)C(Cc1ccccc1)C(=O)NCCc1ccccc1 (single isomer, unassigned) [(S,S,S,R)-10, (E)-8-Amino-2-benzyl-3,7-dihydroxy-9-(4-hydroxy-phenyl)-non-4-enoic acid phenethyl-amide]
[1]
  Ki: 21 ± 1 nM
[2]; [4]
  Ki: 3600 ± 100 nM
[2]
  Ki DOR/Ki MOR: 170
[3]; [5]
  Ki: 1800 ± 300 nM
[3]
  Ki KOR/Ki MOR: 86

## NC(Cc1ccc(O)cc1)C(O)C/C=C/C(O)C(Cc1ccccc1)C(=O)NC(CO)Cc1ccccc1 (single isomer, unassigned) [(S,S,S,R)-11, (E)-8-Amino-2-benzyl-3,7-dihydroxy-9-(4-hydroxy-phenyl)-non-4-enoic acid (1-hydroxymethyl-2-phenyl-ethyl)-amide]
[1]
  Ki: 10 ± 2 nM
[2]; [4]
  Ki: 1100 ± 100 nM
[2]
  Ki DOR/Ki MOR: 110
[3]; [5]
  Ki: 6000 ± 700 nM
[3]
  Ki KOR/Ki MOR: 600

## C=CC(O)C(Cc1ccccc1)NC(=O)C(Cc1ccccc1)C(O)/C=C/CC(O)C(N)Cc1ccc(O)cc1 (single isomer, unassigned) [(S,S,S,R)-12, (E)-8-Amino-2-benzyl-3,7-dihydroxy-9-(4-hydroxy-phenyl)-non-4-enoic acid (1-benzyl-2-hydroxy-but-3-enyl)-amide]
[1]
  Ki: 20 ± 1 nM
[2]; [4]
  Ki: 680 ± 40 nM
[2]
  Ki DOR/Ki MOR: 34
[3]; [5]
  Ki: 1050 ± 10 nM
[3]
  Ki KOR/Ki MOR: 53

## NC(=O)C(Cc1ccccc1)OC(=O)C(Cc1ccccc1)C(O)/C=C/CC(O)C(N)Cc1ccc(O)cc1 [(S,S,S,R)-13, (E)-8-Amino-2-benzyl-3,7-dihydroxy-9-(4-hydroxy-phenyl)-non-4-enoic acid1-carbamoyl-2-phenyl-ethyl ester]
[1]
  Ki: 37 ± 8 nM
[2]; read-out: Ki DOR
  Ki: 910 ± 250 nM
[3]; read-out: Ki KOR
  Ki: 6000 ± 2100 nM
